Values of other authors as cited in US20140037729A1, “COMBINATION OF AN OPIOID AGONIST AND AN OPIOID ANTAGONIST IN THE TREATMENT OF PARKINSON'S DISEASE” (Euro-Celtique, S.A., priority 2010, published 2014).

Key:
[1] = reported
parkinsonian patients = conditions: at higher doses; Berg et al. 1999
parkinsonian monkeys = conditions: in the long term; Samadi et al. 2005

In the case of C=CCN1CC[C@]23c4c5ccc(O)c4O[C@H]2C(=O)CC[C@@]3(O)[C@H]1C5 [Naloxone, naloxone], the oral bioavailability [1] is listed as at most 2%.

In the case of CN1CC[C@]23c4c5ccc(O)c4O[C@H]2[C@@H](O)C=C[C@H]3[C@H]1C5 [morphine], the akinesia (parkinsonian patients) is listed as “increase in akinesia”.

In the case of O=C1CC[C@@]2(O)[C@H]3Cc4ccc(O)c5c4[C@@]2(CCN3CC2CC2)[C@H]1O5 [naltrexone], the dyskinesias (parkinsonian monkeys) is given as “increases dyskinesias”.
